Test results published in patent publication US8134017B1, “Compound and use thereof” (Riken, priority 2010, dated 2012).
Values joined by “and” are separate entries in the source; they are usually repeats but may differ in a detail not shown here. Equal values may be shown once.

Columns and labels:
Format in all cases: physicochemical
[1] = UV-vis absorption spectra; conditions: 5 M, strong acid TFA/THF mixtures, cationic form
Procedure: (§1) UV-vis spectra were collected on a SHIMADZU UV-1700 spectrophotometer at RT (room temperature) using a 1 cm or a 0.1 cm quartz cuvette. Emission spectra were collected on a HITACHI F-4500 fluorescence spectrophotometer. To obtain an accurate spectrum, spectrum correction was carried out with rhodamine B concentrated solution and a secondary-standard light source. In surface photometry, a cut filter was utilized to eliminate multiple lights, such as secondary light, due to the effects of light scattering. Fluorescence spectra of all samples were measured with excitation with 365 nm. Average particle size was measured by dynamic light scattering (ELSZ-2, Otsuka Electronics).
What molecular species of ABPX are appropriate for the evaluation of AIEE in solution was examined. In order to examine to find the appropriate ABPX01 species, the absorbance spectra of […] of ABPX01 were measured in acid or alkaline solution. In THF solution and 1% TEA/THF mixture, the spectra had no peaks that were attributable to the neutral lactonoid species ABPX01^0. In the strong acid solutions of the TFA/THF mixtures, the absorbance spectra having two peaks at 490 nm and 540 nm should be attributable to the cationic form of ABPX01^+. ABPX01^+ is a quinonoid form delocalized over the luminophore and is therefore appropriate for the emission analysis.
The emission spectra are shown in (a) and (b) of FIG. 13. […]

[2] = Emission spectra, aggregation-induced emission enhancement (AIEE)
Procedure: as §1
In contrast, the emission behavior of rhodamines in aqueous solution was reported to decrease at 10^−4 M and above because of the formation of the H-dimer. The behavior of ABPX01^+ was directly opposite to the concentration quenching of common hydrophobic dyes.
The AIEE characteristics of 500 μM of ABPX01^+ to ABPX04^+ were investigated in various solvents. […] The emission spectrum of 500 μM of ABPX01^+ in THF was nonemissive.
The problem was solved by using the surface photometric method (FIG. 12). Explained below are the respective surface photometric equipment configurations. […] The problem was solved by using the surface photometric method. A sample holder was set at an angle of 30° with respect to the excitation light. However, attention should be paid to the linearity of the emission intensity against the concentration for the accurate evaluation of high-concentration sample solutions, such as AIEE molecules. In addition, the relative quantum yields of ABPX in solution could not be determined because of the lack of a standard compound. The use of the surface photometric method allows development of an apparatus for the measurement of the absolute fluorescence quantum yields of high-concentration solutions.
The emission spectra are shown in (a) and (b) of FIG. 13. The emission could be observed when 30% volume fraction of water was added. The emission was enhanced when 50% to 90% volume fraction of water was added. Absorption measurements were similarly carried out in water/THF mixtures (containing 1% TFA). As the water fraction increased, the sharp aggregate spectra appearing at approximately 548 and 600 nm grew, as shown in (c) of FIG. 13. From 30% volume fraction of water addition, level-off tails were seen, which were attributed to Mie scattering caused by nanosized particles.
In order to check whether or not restriction of […] rotation (RIR) is involved in AIEE of ABPX01^+, viscochromism and thermochromism of the ABPX01^+ emission were examined. RIR was affected by the viscosity and temperature of the solvent. […] ABPX01^+ inhibited intramolecular rotation and induced AIEE at high viscosity and low temperature.

[3] = Particle size of aggregates by dynamic laser scattering (DLS); conditions: 500 μM, 90% water/THF (1% TFA), 25° C.
Procedure: as §1
With the use of dynamic laser scattering (DLS), the particle size of ABPX01^+ was examined in 90% water/THF mixtures (containing 1% TFA) at 25° C. […] As illustrated in (b) of FIG. 14, the particle size of ABPX01^+ aggregates was 500 nm immediately after the preparation of ABPX01^+. The ABPX01^+ aggregates then grew to a size of more than 1200 nm after 30 min. The particle size of ABPX01^+ in methanol and chloroform (respectively, containing 1% TFA) could not be calculated because the fluctuation of the scattered photons was not sufficiently observed owing to the subnanometer size.

[4] = Solubility in organic solvents and water

- absorbance peaks [1]: 490 nm and 540 nm
- AIEE ([2]; 500 μM in 1% TFA/chloroform, methanol, ethanol or acetone): exhibited AIEE
- emission in THF ([2]; 500 μM in THF): nonemissive
- volume fraction of water at which emission could be observed ([2]; 500 μM, water/THF mixtures): 30%
- emission intensity with increasing concentration ([2]; 5, 50, 500 μM in 1% TFA/methanol, excitation 365 nm): increased
- emission with increasing solvent viscosity or decreasing temperature ([2]; glycerol/methanol viscosity increased or methanol temperature decreased): increased
- particle size of aggregates ([3]; after 30 min): more than 1200 nm
- particle size of aggregates ([3]; immediately after preparation): 500 nm
- solubility in THF ([4]; THF): easily dissolved
- solubility in organic solvents ([4]; chloroform, methanol, acetone, THF, ethanol): easy to dissolve
- solubility in water [4]: not easy to dissolve
- solubility in water ([4]; listed as ABPX01^+): not in water
Substance: 3′,3″-Bis (oxospriroisobenzofuran)-3,7-bis(diethylamino)benzopyranoxanthene [ABPX01]
